For one data set, the target named is T1, IKK2 (Homo sapiens, UniProt O14920).
T1 construct: made in house; host or cells: insect cells (baculovirus, pFastBac; SF9)
T1 sequence (O14920 1-756): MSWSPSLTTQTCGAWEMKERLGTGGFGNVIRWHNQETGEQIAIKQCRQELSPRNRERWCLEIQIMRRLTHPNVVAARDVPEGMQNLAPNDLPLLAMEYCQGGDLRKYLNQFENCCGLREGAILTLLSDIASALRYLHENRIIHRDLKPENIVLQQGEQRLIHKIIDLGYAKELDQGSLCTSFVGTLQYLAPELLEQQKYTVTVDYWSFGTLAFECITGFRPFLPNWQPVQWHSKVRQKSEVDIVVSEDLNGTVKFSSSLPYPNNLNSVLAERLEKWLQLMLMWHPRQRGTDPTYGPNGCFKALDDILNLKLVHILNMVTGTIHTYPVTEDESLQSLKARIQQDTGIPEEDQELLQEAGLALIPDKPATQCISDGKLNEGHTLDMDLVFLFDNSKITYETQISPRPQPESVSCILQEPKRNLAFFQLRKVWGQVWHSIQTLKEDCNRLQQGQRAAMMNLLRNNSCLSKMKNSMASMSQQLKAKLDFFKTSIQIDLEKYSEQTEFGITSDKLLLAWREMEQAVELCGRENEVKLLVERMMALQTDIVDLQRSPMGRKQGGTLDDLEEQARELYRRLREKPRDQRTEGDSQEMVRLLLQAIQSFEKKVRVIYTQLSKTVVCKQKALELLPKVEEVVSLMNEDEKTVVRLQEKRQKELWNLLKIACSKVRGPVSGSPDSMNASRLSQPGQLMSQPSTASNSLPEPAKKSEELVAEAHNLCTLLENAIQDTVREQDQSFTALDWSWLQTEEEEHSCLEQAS
Kind of data set: IKKβ Resin Enzyme Assay (IKK2 resin). It counts as biochemical. In outline:
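Radiometric test: [γ-33P]ATP incorporation into a biotinylated IκBα peptide, 30 min at 25° C, pH 7.6 Hepes with MgCl2/MnCl2 and 1 μM cold ATP. Reaction is quenched with Dowex resin and the supernatant is counted. Kinase is FLAG-purified homodimeric recombinant human IKK2 from insect cells.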

Where [1] appears, read: Table 4, read-out: IKK2 Resin IC50.
Setting [2] is: Table 6, read-out: IKK2 Resin IC 50.
The mark [3] stands for this setting: Table 14, read-out: IKK2 Resin IC50.
Where [4] appears, read: Table 2, read-out: IKK Resin IC50.
Setting [5] is: Table 3, read-out: IKK Resin IC50.

SMILES strings stand for the structures. Structures can show the parent of a compound that is named as a salt. Where two headings read alike, the source gives them in different places.

Compound `NC(=O)c1nn(-c2ccc3c(c2)OCO3)c2c1CCc1ccc(NC(=O)c3cccnc3N)cc1-2` [Example 210, 8-{[(2-aminopyridin-3-yl)carbonyl]amino}-1-(1,3-benzodioxol-5-yl)-4,5-dihydro-1H-benzo[g]indazole-3-carboxamide] yielded a melting point of 265 to 267 °C.

Turning to `NC(=O)c1nn(-c2ccc3c(c2)OCO3)c2c1CCc1ccc(NC(=O)c3ccccc3Cl)cc1-2` [Example 165, 1-(1,3-benzodioxol-5-yl)-8-[(2-chlorobenzoyl)amino]-4,5-dihydro-1H-benzo[g]indazole-3-carboxamide], at IKK2 (setting [1]), the IC50 was ≤ 1000 nM. Turning to `Cc1c(O)cccc1C(=O)Nc1ccc2c(c1)-c1c(c(C(N)=O)nn1-c1ccc(F)cc1)CC2` [Example 231, 1-(4-fluorophenyl)-8-[(3-hydroxy-2-methylbenzoyl)amino]-4,5-dihydro-1H-benzo[g]indazole-3-carboxamide], on IKK2 (setting [2]), the IC50 was ≤ 1000 nM. On to `NC(=O)c1nn(-c2ccc(F)c(F)c2)c2c1CCc1ccc(NC(=O)c3ccccc3Cl)cc1-2` [Example 363, 8-[(2-chlorobenzoyl)amino]-1-(3,4-difluorophenyl)-4,5-dihydro-1H-benzo[g]indazole-3-carboxamide], for which the IC50 at IKK2 (setting [3]) is ≤ 1000 nM. As to `CS(=O)(=O)c1ccc(-n2nc(C(N)=O)c3c2-c2cc(NC(=O)c4ccc(N=[N+]=[N-])cc4)ccc2CC3)cc1` [Example 122, 8-[(4-azidobenzoyl)amino]-1-[4-(methylsulfonyl)phenyl]-4,5-dihydro-1H-benzo[g]indazole-3-carboxamide], on IKK2 (setting [4]), the IC50 was ≤ 1000 nM. As for `NC(=O)c1nn(-c2cccc(F)c2)c2c1CCc1ccc(NC(=O)c3ccccc3Cl)cc1-2` [Example 339, 8-[(2-chlorobenzoyl)amino]-1-(3-fluorophenyl)-4,5-dihydro-1H-benzo[g]indazole-3-carboxamide], the IC50 at IKK2 (setting [3]) is ≤ 1000 nM. As to `NC(=O)c1nn(-c2ccc(F)c(Cl)c2)c2c1CCc1ccc(NC(=O)c3ccccc3Cl)cc1-2` [Example 356, 8-[(2-chlorobenzoyl)amino]-1-(3-chloro-4-fluorophenyl)-4,5-dihydro-1H-benzo[g]indazole-3-carboxamide], the IC50 at IKK2 (setting [3]) was ≤ 1000 nM.

Take `CS(=O)(=O)c1ccc(-n2nc(C(N)=O)c3c2-c2cc(NC(=O)c4c(F)cccc4Cl)ccc2CC3)cc1` [Example 134, 8-[(2-chloro-6-fluorobenzoyl)amino]-1-[4-(methylsulfonyl)phenyl]-4,5-dihydro-1H-benzo[g]indazole-3-carboxamide]: on IKK2 (setting [5]), the IC50 was ≤ 1000 nM. Take `CS(=O)(=O)c1ccc(-n2nc(C(N)=O)c3c2-c2cc(NC(=O)c4cc(N=[N+]=[N-])ccc4[N+](=O)[O-])ccc2CC3)cc1` [Example 121, 8-[(5-azido-2-nitrobenzoyl)amino]-1-[4-(methylsulfonyl)phenyl]-4,5-dihydro-1H-benzo[g]indazole-3-carboxamide]: the IC50 on IKK2 (setting [4]) is ≤ 1000 nM. With `Cc1c(O)cccc1C(=O)Nc1ccc2c(c1)-c1c(c(C(N)=O)nn1-c1ccc3c(c1)OCO3)CC2` [Example 198, 1-(1,3-benzodioxol-5-yl)-8-[(3-hydroxy-2-methylbenzoyl)amino]-4,5-dihydro-1H-benzo[g]indazole-3-carboxamide], the IC50 on IKK2 (setting [1]) was ≤ 1000 nM. On to `CN(C)CC(=O)Nc1ccc(Cl)c(C(=O)Nc2ccc3c(c2)-c2c(c(C(N)=O)nn2-c2ccc(S(C)(=O)=O)cc2)CC3)c1` [Example 119, 8-({2-chloro-5-[(N,N-dimethylglycyl)amino]benzoyl}amino)-1-[4-(methylsulfonyl)phenyl]-4,5-dihydro-1H-benzo[g]indazole-3-carboxamidehydrochloride], for which the IC50 at IKK2 (setting [4]) was ≤ 1000 nM. As for `Cc1ccc(-n2nc(C(N)=O)c3c2-c2cc(NC(=O)c4ccccc4Cl)ccc2CC3)cc1` [Example 335, 8-[(2-chlorobenzoyl)amino]-1-(4-methylphenyl)-4,5-dihydro-1H-benzo[g]indazole-3-carboxamide], the IC50 at IKK2 (setting [3]) was ≤ 1000 nM. Consider `C=CCNS(=O)(=O)c1ccc(-n2nc(C(N)=O)c3c2-c2cc(NC(=O)c4ccccc4Cl)ccc2CC3)cc1` [Example 421, 1-{4-[(allylamino)sulfonyl]phenyl}-8-[(2-chlorobenzoyl)amino]-4,5-dihydro-1H-benzo[g]indazole-3-carboxamide], for which the IC50 on IKK2 (read-out: IKK-2 resin IC50) was ≤ 1000 nM. For `NC(=O)c1nn(-c2ccc(/C=C/n3ccnc3)cc2)c2c1CCc1ccc(NC(=O)c3ccccc3Cl)cc1-2` [Example 293, 8-[(2-chlorobenzoyl)amino]-1-{4-[(E)-2-(1H-imidazol-1-yl)ethenyl]phenyl}-4,5-dihydro-1H-benzo[g]indazole-3-carboxamide], the IC50 at IKK2 (Table 11, read-out: IKK2 Resin IC50) is ≤ 1000 nM. With `COc1cccc(CC(=O)Nc2ccc3c(c2)-c2c(c(C(N)=O)nn2-c2ccc(S(C)(=O)=O)cc2)CC3)c1` [Example 157, 8-{[(3-methoxyphenyl)acetyl]amino}-1-[4-(methylsulfonyl)phenyl]-4,5-dihydro-1H-benzo[g]indazole-3-carboxamide], the IC50 at IKK2 (setting [5]) was ≤ 1000 nM.

Turning to `Cc1ccccc1C(=O)Nc1ccc2c(c1)-c1c(c(C(N)=O)nn1-c1ccc(S(C)(=O)=O)cc1)CC2` [Example 94, 8-[(2-methylbenzoyl)amino]-1-[4-(methylsulfonyl)phenyl]-4,5-dihydro-1H-benzo[g]indazole-3-carboxamide], the IC50 at IKK2 (setting [4]) was ≤ 1000 nM. With `CN(C)S(=O)(=O)c1ccc(-n2nc(C(N)=O)c3c2-c2cc(NC(=O)c4ccccc4Cl)ccc2CC3)cc1` [Example 427, 8-[(2-chlorobenzoyl)amino]-1-{4-[(dimethylamino)sulfonyl]phenyl}-4,5-dihydro-1H-benzo[g]indazole-3-carboxamide], the IC50 on IKK2 (Table 21, read-out: IKK2 Resin IC50) was ≤ 1000 nM. As to `CCNC(=O)/C=C/c1ccc(-n2nc(C(N)=O)c3c2-c2cc(NC(=O)c4ccccc4Cl)ccc2CC3)cc1` [Example 312, 8-[(2-chlorobenzoyl)amino]-1-{4-[(1E)-3-(ethylamino)-3-oxoprop-1-enyl]phenyl)-4,5-dihydro-1H-benzo[g]indazole-3-carboxamidee], at IKK2 (Table 12, read-out: IKK2 Resin IC50), the IC50 was ≤ 1000 nM. In the case of `NC(=O)c1nn(-c2ccc(F)cc2)c2c1CCc1ccc(NC(=O)c3ccc(C(F)(F)F)nc3Cl)cc1-2` [Example 234, 8-({[2-chloro-6-(trifluoromethyl)pyridin-3-yl]carbonyl}amino)-1-(4-fluorophenyl)-4,5-dihydro-1H-benzo[g]indazole-3-carboxamide], at IKK2 (setting [2]), the IC50 was ≤ 1000 nM. With `CN(C)c1ccc(Cl)c(C(=O)Nc2ccc3c(c2)-c2c(c(C(N)=O)nn2-c2ccc4c(c2)OCO4)CC3)c1` [Example 183, 1-(1,3-benzodioxol-5-yl)-8-{[2-chloro-5-(dimethylamino)benzoyl]amino}-4,5-dihydro-1H-benzo[g]indazole-3-carboxamide], the IC50 at IKK2 (setting [1]) was ≤ 1000 nM. Consider `CC(=O)Nc1ccc(-n2nc(C(N)=O)c3c2-c2cc(NC(=O)c4ccccc4Cl)ccc2CC3)cc1` [Example 371, 1-[4-(acetylamino)phenyl]-8-[(2-chlorobenzoyl)amino]-4,5-dihydro-1H-benzo[g]indazole-3-carboxamide], for which the IC50 on IKK2 (Table 15, read-out: IKK2 Resin IC50) was ≤ 1000 nM. For the compound `CSc1ccc(-n2nc(C(N)=O)c3c2-c2cc(NS(C)(=O)=O)ccc2CC3)cc1` [Example 411, 8-[(methylsulfonyl)amino]-1-[4-(methylthio)phenyl]-4,5-dihydro-1H-benzo[g]indazole-3-carboxamide], the IC50 at IKK2 (Table 19, read-out: IKK2 Resin IC50) is ≤ 1000 nM. As to `NC(=O)c1nn(-c2ccc(N3CCOCC3)cc2)c2c1CCc1ccc(NC(=O)c3cccnc3Cl)cc1-2` [Example 288, 8-{[(2-chloropyridin-3-yl)carbonyl]amino}-1-(4-morpholin-4-ylphenyl)-4,5-dihydro-1H-benzo[g]indazole-3-carboxamide], the IC50 on IKK2 (read-out: IKK-2 resin IC50) was 1000 to 10000 nM. `NC(=O)c1nn(-c2ccc3c(c2)OCO3)c2c1CCc1ccc(NC(=O)c3ccc(F)cc3Cl)cc1-2` [Example 164, 1-(1,3-benzodioxol-5-yl)-8-[(2-chloro-4-fluorobenzoyl)amino]-4,5-dihydro-1H-benzo[g]indazole-3-carboxamide]: on IKK2 (setting [1]), the IC50 was ≤ 1000 nM. `CS(=O)(=O)c1ccc(-n2nc(C(N)=O)c3c2-c2cc(NC(=O)c4cc(N)ccc4Cl)ccc2CC3)cc1` [Example 112, 8-[(5-amino-2-chlorobenzoyl)amino]-1-[4-(methylsulfonyl)phenyl]-4,5-dihydro-1H-benzo[g]indazole-3-carboxamidehydrochloride]: the IC50 on IKK2 (setting [4]) was ≤ 1000 nM.

As to `COc1ccc(C(=O)Nc2ccc3c(c2)-c2c(c(C(N)=O)nn2-c2ccc(S(C)(=O)=O)cc2)CC3)cc1` [Example 143, 8-[(4-methoxybenzoyl)amino]-1-[4-(methylsulfonyl)phenyl]-4,5-dihydro-1H-benzo[g]indazole-3-carboxamide], on IKK2 (setting [5]), the IC50 was ≤ 1000 nM.

As a reminder, the melting point is the temperature of the solid-liquid transition.

For the origin of these results see patent US7186743B2, “Substituted pyrazolyl compounds for the treatment of inflammation” (Pharmacia Corporation, priority 2001, dated 2007).
